Data published in patent US20200288710A1, “SUBSTITUTED SULPHONAMIDES FOR CONTROLLING ANIMAL PESTS” (BAYER CROPSCIENCE AKTIENGESELLSCHAFT, priority 2016, published 2020).

Experiments:
[1] = test system: Meloidogyne incognita; experiment: Meloidogyne incognita test; format: in vivo; conditions: 336 h, lettuce, after 14 days, read-out: nematicidal efficacy (formation of galls)
Protocol: Meloidogyne incognita Test Solvent: 125.0 parts by weight of acetone To produce a suitable active compound preparation, 1 part by weight of active compound is mixed with the stated amount of solvent and the concentrate is diluted with water to the desired concentration. Vessels are filled with sand, active compound solution, an egg/larvae suspension of the southern rootknot nematode (Meloidogyne incognita) and lettuce seeds. The lettuce seeds germinate and the plants develop. The galls develop on the roots. After 14 days, the nematicidal efficacy in % is determined by the formation of galls. 100% means that no galls were found; 0% means that the number of galls on the treated plants corresponds to the untreated control.

[2] = test system: Myzus persicae; experiment: Myzus persicae oral test; format: in vivo; conditions: 120 h, 20 ppm, oral uptake, after 5 days, read-out: efficacy
Outline: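 Compound dissolved in acetone, diluted in water, then mixed 50:150 μl with IPL41 insect medium (33%+15% sugar). Mixed-population green peach aphids feed through a parafilm seal on the solution; mortality scored as % efficacy after 5 days (100% = all killed).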

| Compound | pest or weed control at 20 ppm [1] | pest or weed control at 20 ppm [2] |
| --- | --- | --- |
| CCc1ccccc1-c1nc(C(=O)NS(=O)(=O)c2ccccc2Cl)cn1C [Example 496] | 100% | 90% |
| Cn1cc(C(=O)NS(=O)(=O)c2ccc(Cl)c(Cl)c2)nc1-c1c(F)cccc1F [Example 187] | 90% | 100% |
| Cn1cc(C(=O)NS(=O)(=O)Cc2ccc(Cl)cc2)nc1-c1ccccc1Cl [Example 63] | 100% | 100% |
| Cn1cc(C(=O)NS(=O)(=O)c2ccccc2Cl)nc1-c1ccccc1-c1ccccc1 [Example 532] | 90% | 100% |
| Cn1cc(C(=O)NS(=O)(=O)c2ccc(Br)s2)nc1-c1c(F)cccc1F [Example 353] | 90% | 90% |
| Cn1cc(C(=O)NS(=O)(=O)Cc2cccc(Cl)c2)nc1-c1ccccc1Cl [Example 61] | 100% | 100% |
| Cc1[nH]c(C(=O)NS(=O)(=O)C(C)C)nc1-c1ccccc1Cl [Example 202] | 90% | 100% |
| Cc1ccccc1S(=O)(=O)NC(=O)c1cn(C)c(-c2ccccc2[N+](=O)[O-])n1 [Example 525] | 100% | 100% |
| CC(C)c1cccc(-c2nc(C(=O)NS(=O)(=O)c3ccccc3Br)cn2C)c1 [Example 330] | 90% | 90% |
| CCn1cc(C(=O)NS(=O)(=O)CC(F)(F)F)nc1-c1ccccc1Cl [Example 77] | 90% | 90% |
| O=C(NS(=O)(=O)C1CC1)c1cc(-c2ncccc2Cl)n(-c2ccccc2Cl)n1 [Example 456] | 100% | 100% |
| CCn1cc(C(=O)NS(=O)(=O)c2cccc(Cl)c2)nc1-c1ccccc1Cl [Example 40] | 100% | 100% |
| COc1ccc(Cl)c(S(=O)(=O)NC(=O)c2nc(-c3ccc(Cl)cc3)[nH]c2C)c1 [Example 618] | 100% | 100% |
| Cc1ccccc1S(=O)(=O)NC(=O)c1cc(-c2ncccc2Cl)n(-c2ccccc2Cl)n1 [Example 265] | 100% | 100% |
| COc1ccc(Cl)c(S(=O)(=O)NC(=O)c2c[nH]c(-c3c(F)cccc3F)n2)c1 [Example 411] | 90% | 100% |
| Cc1[nH]c(-c2c(F)cccc2F)nc1C(=O)NS(=O)(=O)c1ccccc1Cl [Example 192] | 90% | 100% |
| CC(C)CS(=O)(=O)NC(=O)c1cn(C)c(-c2c(F)cccc2Cl)n1 [Example 325] | 90% | 100% |
| Cc1cccc(C2CCCC2)c1S(=O)(=O)NC(=O)c1cn(C)c(-c2c(F)cccc2F)n1 [Example 362] | 100% | – |
| Cn1cc(C(=O)NS(=O)(=O)Nc2ccc(Cl)cc2)nc1-c1c(F)cccc1F [Example 506] | 90% | – |
| Cc1ccccc1S(=O)(=O)NC(=O)c1nc(-c2c(F)cccc2F)nn1C [Example 410] | 90% | – |
| Cc1[nH]c(-c2c(F)cccc2Cl)nc1C(=O)NS(=O)(=O)c1ccccc1Cl [Example 623] | 100% | – |
| COc1ccc(Cl)c(S(=O)(=O)NC(=O)c2nc(-c3ccccc3F)[nH]c2C)c1 [Example 627] | 90% | – |

| Compound | pest or weed control at 20 ppm [1] | pest or weed control at 20 ppm [2] |
| --- | --- | --- |
| Cn1cc(C(=O)NS(=O)(=O)c2ccccc2Cl)nc1-c1ccccc1C#N [Example 481] | 90% | – |
| Cc1ccccc1NS(=O)(=O)NC(=O)c1cn(C)c(-c2c(F)cccc2F)n1 [Example 504] | 90% | – |
| CC(C)Cc1ccc(S(=O)(=O)NC(=O)c2cn(C)c(-c3c(F)cccc3F)n2)cc1 [Example 287] | 90% | – |
| Cc1ccccc1-c1nc(C(=O)NS(=O)(=O)c2ccccc2)cn1C [Example 50] | 90% | – |
| CCc1[nH]c(-c2ccc(F)c(F)c2)nc1C(=O)NS(=O)(=O)c1ccccc1Cl [Example 471] | 90% | – |
| O=C(NS(=O)(=O)c1ccccc1Cl)c1cc(-c2ccccc2Cl)n(-c2ncccc2Cl)n1 [Example 262] | 90% | – |
| COc1ccccc1S(=O)(=O)NC(=O)c1cn(C)c(-c2ccccc2-c2ccccc2)n1 [Example 534] | 90% | – |
| CCc1[nH]c(-c2cccc(Cl)c2Cl)nc1C(=O)NS(=O)(=O)c1ccccc1C [Example 260] | 100% | – |
| Cn1nc(-c2c(F)cccc2F)nc1C(=O)NS(=O)(=O)c1ccccc1Br [Example 408] | 90% | – |
| COc1ccccc1S(=O)(=O)NC(=O)c1cn(C)c(-c2cccc3c2OC(F)(F)O3)n1 [Example 543] | 90% | – |
| COc1ccccc1S(=O)(=O)NC(=O)c1cn(C)c(-c2ccccc2Oc2ccccc2)n1 [Example 486] | 90% | – |
| Cc1ccc(C(C)C)cc1S(=O)(=O)NC(=O)c1cn(C)c(-c2c(F)cccc2F)n1 [Example 396] | 90% | – |
| COc1ccccc1S(=O)(=O)NC(=O)c1cn(C)c(-c2cc(Cl)ccc2Cl)n1 [Example 527] | 90% | – |
| Cc1[nH]c(-c2ccccc2F)nc1C(=O)NS(=O)(=O)c1ccccc1Cl [Example 626] | 90% | – |
| Cn1cc(C(=O)NS(=O)(=O)c2ccccc2Cl)nc1-c1ccccc1Oc1ccccc1 [Example 484] | 100% | – |
| Cc1[nH]c(-c2ccc(Cl)c(Cl)c2)nc1C(=O)NS(=O)(=O)c1ccccc1Cl [Example 614] | 100% | – |
| COc1ccccc1S(=O)(=O)NC(=O)c1cn(C)c(-c2cccc3ccccc23)n1 [Example 480] | 90% | – |
| CC(C)N(C)S(=O)(=O)NC(=O)c1cn(C)c(-c2c(F)cccc2F)n1 [Example 551] | 90% | – |
| CCc1[nH]c(-c2ccc(F)cc2F)nc1C(=O)NS(=O)(=O)c1cc(OC)ccc1Cl [Example 244] | 90% | – |
| Cc1ccccc1S(=O)(=O)NC(=O)c1cn(C)c(-c2ccc(F)c(F)c2)n1 [Example 545] | 100% | – |
| Cn1c(-c2ccccc2Cl)nc(C(=O)NS(=O)(=O)c2ccccc2Cl)c1Br [Example 580] | 100% | – |
| COc1cccc(OC(C)C)c1S(=O)(=O)NC(=O)c1cn(C)c(-c2c(F)cccc2F)n1 [Example 380] | 100% | – |

| Compound | pest or weed control at 20 ppm [1] | pest or weed control at 20 ppm [2] |
| --- | --- | --- |
| CCc1[nH]c(-c2cccc(Cl)c2)nc1C(=O)NS(=O)(=O)c1ccccc1C [Example 129] | 90% | – |
| Cn1cc(C(=O)NS(=O)(=O)c2ccccc2Cl)nc1-c1ccc(Cl)c(Cl)c1 [Example 535] | 100% | – |
| COc1cccc(S(C)(=O)=O)c1S(=O)(=O)NC(=O)c1cn(C)c(-c2c(F)cccc2F)n1 [Example 382] | 90% | – |
| O=C(NS(=O)(=O)c1c(Cl)cccc1Cl)c1cc(-c2ccccc2Cl)n(-c2ncccc2Cl)n1 [Example 263] | 100% | – |
| CCNc1ccccc1S(=O)(=O)NC(=O)c1cn(C)c(-c2ccccc2Cl)n1 [Example 251] | 90% | – |
| CC(C)c1ccccc1S(=O)(=O)NC(=O)c1cn(C)c(-c2c(F)cccc2F)n1 [Example 359] | 90% | – |
| COc1ccc(S(=O)(=O)NC(=O)c2cn(C)c(-c3c(F)cccc3F)n2)cn1 [Example 344] | 90% | – |
| Cn1cc(C(=O)NS(=O)(=O)c2ccccc2Cl)nc1-c1csc2ccccc12 [Example 522] | 90% | – |
| Cn1cc(C(=O)NS(=O)(=O)c2ccccc2Cl)nc1-c1ccc(F)c(F)c1 [Example 544] | 100% | – |
| CCSc1ccccc1-c1nc(C(=O)NS(=O)(=O)c2ccccc2C)cn1C [Example 475] | 90% | – |
| Cc1ccccc1S(=O)(=O)NC(=O)c1cn(C)c(-c2ccccc2C(C)C)n1 [Example 473] | 90% | – |
| Cn1cc(C(=O)NS(=O)(=O)N2CCOCC2)nc1-c1c(F)cccc1F [Example 505] | 90% | – |
| COc1ccccc1S(=O)(=O)NC(=O)c1cn(C)c(-c2ccncc2)n1 [Example 487] | 90% | – |
| COc1ccc(Cl)c(S(=O)(=O)NC(=O)c2cc(-c3ncccc3Cl)n(-c3ccccc3Cl)n2)c1 [Example 457] | 100% | – |
| Cn1cc(C(=O)NS(=O)(=O)c2ccccc2OC(C)(C)C)nc1-c1c(F)cccc1F [Example 376] | 90% | – |
| CCn1c(C(=O)NS(=O)(=O)c2ccccc2C)nc(-c2c(F)cccc2F)c1C [Example 417] | 100% | – |
| CC(C)Cc1ccc(S(=O)(=O)NC(=O)c2cn(C)c(-c3ccccc3Cl)n2)cc1 [Example 288] | 90% | – |
| CC(C)S(=O)(=O)NC(=O)c1cn(C)c(-c2c(F)cccc2F)n1 [Example 85] | 90% | – |
| CCc1[nH]c(-c2cccc(C)c2C)nc1C(=O)NS(=O)(=O)c1ccccc1Cl [Example 472] | 90% | – |
| CCc1[nH]c(-c2ccccc2Cl)nc1C(=O)NS(=O)(=O)c1ccccc1Cl [Example 243] | 90% | – |
| Cn1cc(C(=O)NS(=O)(=O)c2ccccc2Cl)nc1-c1cccs1 [Example 516] | 90% | – |
| CCc1[nH]c(-c2c(F)cccc2F)nc1C(=O)NS(=O)(=O)c1cc(OC)ccc1Cl [Example 246] | 90% | – |
